Measurements from EP4417607A1, “HETEROCYCLIC COMPOUND AS SOS1 INHIBITOR AND USES THEREOF” (Nanjing Zaiming Pharmaceutical Co., Ltd., priority 2021, dated 2023).

Key:
CYP2C9 = molecular target: T1, CYP2C9 (Homo sapiens, UniProt P11712); assay: CYP2C9 enzymatic activity inhibition in human liver microsomes; assay type: in vitro ADME; conditions: IC50, human liver microsome, substrate diclofenac
T1 construct: Human liver microsome (Corning 452117); tissue Corning 452117; host or cells: human liver microsomes
T1 sequence (P11712 whole entry): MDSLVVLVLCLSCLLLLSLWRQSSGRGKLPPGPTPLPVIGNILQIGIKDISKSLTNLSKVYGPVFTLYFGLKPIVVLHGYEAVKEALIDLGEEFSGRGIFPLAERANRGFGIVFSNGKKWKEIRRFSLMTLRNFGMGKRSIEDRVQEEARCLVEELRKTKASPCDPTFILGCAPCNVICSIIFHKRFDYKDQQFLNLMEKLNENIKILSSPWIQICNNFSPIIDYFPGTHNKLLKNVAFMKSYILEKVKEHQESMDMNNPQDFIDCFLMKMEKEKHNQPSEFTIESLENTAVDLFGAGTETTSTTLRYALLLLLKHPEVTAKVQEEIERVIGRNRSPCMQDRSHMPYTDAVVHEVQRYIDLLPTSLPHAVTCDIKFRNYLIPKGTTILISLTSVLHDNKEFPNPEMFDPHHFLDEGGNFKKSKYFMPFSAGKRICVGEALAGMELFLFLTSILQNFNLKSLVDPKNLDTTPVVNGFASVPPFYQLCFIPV
Protocol: (§1) The inhibition of CYP2C9, CYP2D6, and CYP3A4 enzymatic activity by the compound of the present invention was determined using the following method. • I. Experimental materials and instruments • 1. Human liver microsome (Corning 452117) • 2. Na2HPO4 (Sigma SLBZ6180) • 3. KH2PO4 (Sigma SLBT6559) • 4. NADPH (Solarbio 705Y021) • […] • 6. Positive substrates diclofenac (Sigma SLBV3438), dextromethorphan (TRC 3-EDO-175-1), and midazolam (Cerilliant FE01161704) • 7. Positive inhibitors sulfaphenazole (D. Ehrenstorfer GmbH 109012), quinidine (TCI WEODL-RE), and ketoconazole (Sigma 100M1091V) • 7. AB Sciex Triple Quad 5500 liquid chromatography-mass spectrometry system • II. Procedures • 1. Preparation of 100 mM phosphate-buffered saline (PBS): 7.098 g Na2HPO4 was weighed. 500 mL pure water was added. The mixture was dissolved by sonication to give solution A. 3.400 g KH2PO4 was weighed. 250 mL pure water was added. The mixture was dissolved by sonication to give solution B. The solution A was placed in a stirrer, and the solution B was slowly added until the pH reached 7.4 to prepare the 100 mM PBS buffer. • 2. A 10 mM NADPH solution was prepared with a 100 mM PBS buffer. A 10 mM stock solution of the compound of the present invention was diluted with DMSO to give a compound working solution at a concentration of 200× (6000, 2000, 600, 200, 60, 20, and 0 µM). The positive inhibitor stock solution was diluted with DMSO to give a positive inhibitor working solution at a concentration of 200× (sulfaphenazole, 1000, 300, 100, 30, 10, 3, and 0 µM; quinidine/ketoconazole, 100, 30, 10, 3, 1, 0.3, and 0 µM). Substrate working solutions (120 µM diclofenac, 400 µM dextromethorphan, and 200 µM midazolam) at a concentration of 200× were prepared with water, acetonitrile, or acetonitrile/methanol. • 3. […]
(§2) The values were calculated by Excel XLfit 5.3.1.3 to obtain IC50 values for the compounds of the present invention against CYP2C9, CYP2D6, and CYP3A4 as shown in Table 8. […]

CYP3A4 = molecular target: T2, CYP3A4 (Homo sapiens, UniProt P08684); assay: CYP3A4 enzymatic activity inhibition in human liver microsomes; assay type: in vitro ADME; conditions: IC50, human liver microsome, substrate midazolam
T2 construct: Human liver microsome (Corning 452117); tissue Corning 452117; host or cells: human liver microsomes
T2 sequence (P08684 whole entry): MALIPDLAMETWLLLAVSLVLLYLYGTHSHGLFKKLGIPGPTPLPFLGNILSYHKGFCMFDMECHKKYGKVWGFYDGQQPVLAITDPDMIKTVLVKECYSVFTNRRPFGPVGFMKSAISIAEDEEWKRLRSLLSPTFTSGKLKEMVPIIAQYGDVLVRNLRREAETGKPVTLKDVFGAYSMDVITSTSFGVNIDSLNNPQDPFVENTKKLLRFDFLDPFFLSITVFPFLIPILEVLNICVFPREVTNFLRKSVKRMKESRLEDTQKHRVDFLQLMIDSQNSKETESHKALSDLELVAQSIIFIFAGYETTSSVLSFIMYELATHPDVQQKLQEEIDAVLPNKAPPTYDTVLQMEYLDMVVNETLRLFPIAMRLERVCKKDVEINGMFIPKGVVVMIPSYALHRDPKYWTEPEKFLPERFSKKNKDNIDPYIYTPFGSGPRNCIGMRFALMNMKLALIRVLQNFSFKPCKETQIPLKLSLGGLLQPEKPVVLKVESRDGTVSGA
Protocol: as §1, §2

| Structure (SMILES) | IC50 (CYP2C9) [µM] | IC50 (CYP3A4) [µM] |
| --- | --- | --- |
| [2H]C([2H])([2H])Oc1c(=O)n(C2(CF)CC2)cc2c(N[C@H](C)c3cccc(C(F)F)c3F)nc(C)nc12 [Example 23, (R)-4-((1-(3-(difluoromethyl)-2-fluorophenyl)ethyl)amino)-6-(1-(fluoromethyl)cyclopropyl)-8-(methoxy-d3)-2-methylpyrido[4,3-d]pyrimidine-7(6H)-one] | > 30 | > 30 |
| Cc1nc(N[C@H](C)c2cccc(C(F)F)c2F)c2cn(C3(CF)CC3)c(=O)c(N3CCOC[C@@H]3C)c2n1 [Example 40, 4-(((R)-1-(3-(difluoromethyl)-2-fluorophenyl)ethyl)amino)-6-(1-(fluoromethyl)cyclopropyl)-2-methyl-8-((S)-3-methylmorpholine)pyrido[4,3-d]pyrimidine-7(6H)-one] | > 30 | > 30 |
| [2H][C@](C)(Nc1nc(C)nc2c(N3CCOCC3)c(=O)n(C3(CF)CC3)cc12)c1cccc(C(F)F)c1F [Example 55, (R)-4-((1-(3-(difluoromethyl)-2-fluorophenyl)ethyl-1-d)amino)-6-(1-(fluoromethyl)cyclopropyl)-2-methyl-8-morpholinylpyrido[4,3-d]pyrimidine-7(6H)-one] | > 30 | > 30 |
